≈ marks a conversion by molar mass, not a printed value. Like-named read-outs stand apart in the source and are kept apart here. One block for each molecule: values may come before it.
What was measured:
physchem = conditions: thermodynamic from solid
[1] = Two-steps Dissolution/Precipitation in vitro Human Fasted model (gastric then intestinal compartment); format: physicochemical; conditions: for Crystalline phase conversion as detected by XRPD: solid residues collected in the fasted Dissolution/Precipitation test
Procedure: Samples were analysed by HPLC-UV according to the following method: • Instrument: Agilent 1200 and 1100 with PDA detector • Column: Waters XTerra MS C18 3.5 μm 4.6×50 mm • Flow rate: 1.5 ml/min • UV detection: 220 nm, 270 nm, 290 nm • Column temperature: 40° C. • Injection volume: 1 μl • Mobile phase: gradient with solutions A and B prepared according to the following: • Eluent A: Ultrapurified water adjusted to pH2 with orthophosphoric acid 85% • Eluent B: Acetonitrile
The ABX464 crystalline Form I, and anhydrous ABX464 hemi-Napadisylate salt have been evaluated in the Two-steps Dissolution/Precipitation in vitro Human model.
The model consists in the following steps: • Dispensing selected material in Fasted simulated gastric medium containing 1% w PVPVA (inhibitor of precipitation) and then after 30 min, • Diluting obtained suspension by simulated Fasted intestinal medium.
Using this model, the dissolution of selected materials (ABX464 crystalline Form I, or anhydrous BX464 hemi-Napadisylate salt) in gastric medium and the risk of precipitation of the API (Active Pharmaceutical Ingredient) in intestinal compartment is evaluated.
The crystalline nature of solid residues collected by end of each steps (Gastric and Intestinal) have been determined by XRPD after centrifugation (15 min at 18000 rpm).
Protocol for Dissolution/Precipitation Model in Human Fasted Conditions • In 6 different vials, 4.0 mg equivalent ABX464 of selected material are weighed • Solubility measurement in the gastric compartment (also named G) after 15 min (G15 min) and after 30 min (G30 min) which comprises the following steps: • Adding 1 mL of FaSSGF pH 1.2 medium containing 1% w PVPVA (ABX464 target concentration=4 mg/ml) on the 6 vials, • Mixing with a vortex at 37° C. • At times 15 min and 30 min, considering one vial (vials labelled G15 min and G30 min respectively) and for each vials • noting the aspect of suspension, • centrifuging 5 min at 18000 rpm and filtering on a 0.45 μm filter (filter Millex LCR Ref. SLCR0,13NK). • Measuring the pH of supernatant, • Dosing ABX464 soluble fraction by HPLC, • Recording XPRD pattern on the final time point sample. • Solubility measurement in the intestinal compartment (also named I) after 15 min (vial I 15 min), 30 min (vial I 30 min), 60 min (vial I 60 min) and 120 min (vial I 120 min) which comprises the following steps: • Adding 1 mL of FaSSIF ×2 pH 6.5 medium/sodium bicarbonate 90/10) on the 4 remaining vials (ABX464 target concentration=2 mg/ml) • Mixing with a Vortex at 37° C. • At times 15 min, 30 min, 60 min and 120 min, considering one vial (vials labelled I 15 min, I 30 min, I 60 min and I 120 min respectively) and for each vials • noting the aspect of suspension • Centrifuging 5 min at 18000 rpm and filtering on a 0.45 μm filter (filter Millex LCR Ref. SLCR0,13NK). • Measuring the pH of supernatant • Dosing ABX464 soluble fraction by HPLC • Recording XPRD pattern on the final time point sample.
Composition and preparation of biorelevant media in Fasted conditions (see tables 11 and 12): • Fasted Gastric medium=FaSSGF pH=1.2/1% PVPVA w/v
• Fasted Intestinal medium (FaSSIF X2 pH=6.5/Sodium Bicarbonate at 80 g/l 90/10 v/v) Composition/Preparation of FaSSIF ×2 (medium concentrated 2 times to take into account the dilution in the Fasted model):
The FaSSIF X2/Sodium Bicarbonate 80 g/l (90/10; v/v) mixture was prepared to keep pH equal to 6.5 in the intestinal compartment after dilution.

[2] = Kinetic solubility in two aqueous media (FaSSIF pH 6.5 + 1% PVPVA; FeSSIF pH 5.0 + 1% PVPVA); conditions: for Solubility compared to the ABX464 crystalline Form I: FaSSIF and FeSSIF media (+ 1% PVPVA), at each time; for Kinetic solubility: room temperature, 2 mg/ml equivalent ABX464 target
[3] = FaSSIF pH 6.5 + 1% PVPVA, pH 6.5, aqueous with cosolvent or surfactant or cyclodextrin
[4] = FeSSIF + 1% PVPVA, pH 5, aqueous with cosolvent or surfactant or cyclodextrin
[5] = FeSSIF pH 5 + 1% PVPVA, pH 5, aqueous with cosolvent or surfactant or cyclodextrin

solubility kinetic at 5 min (physchem; [3]): 6 µg/mL
solubility kinetic at 30 min (physchem; [3]): 22 µg/mL
solubility kinetic at 2 h (physchem; [3]): 47 µg/mL
solubility kinetic at 4 h (physchem; [3]): 62 µg/mL
solubility kinetic at 24 h (physchem; [3]): 72 µg/mL
solubility at 2 h (physchem; [4]): ~300 µg/mL
solubility at 24 h (physchem; [4]): ~420 µg/mL
solubility kinetic at 5 min (physchem; [5]): 54 µg/mL
solubility kinetic at 30 min (physchem; [5]): 153 µg/mL
solubility kinetic at 2 h (physchem; [5]): 297 µg/mL
solubility kinetic at 4 h (physchem; [5]): 358 µg/mL
solubility kinetic at 24 h (physchem; [5]): 419 µg/mL
solubility at 15 min ([1]; 37 °C, pH 1.2, fassgf or other biorelevant, thermodynamic from solid, gastric compartment, vial G 15 min, FaSSGF pH 1.2 + 1% PVPVA, 37° C., target about 4 mg/ml, read-out: Soluble fraction): 60 µg/mL
solubility at 30 min ([1]; 37 °C, pH 1.2, fassgf or other biorelevant, thermodynamic from solid, gastric compartment, vial G 30 min, FaSSGF pH 1.2 + 1% PVPVA, 37° C., target about 4 mg/ml, read-out: Soluble fraction): 70 µg/mL
solubility ([1]; 37 °C, pH 6.5, fassif, thermodynamic from solid, intestinal compartment at pH 6.5 of the fasted human in vitro model, read-out: Solubility (ABX464 soluble fraction) in the intestinal compartment): ~80 µg/mL (≈ 236 µM)
solubility at 15 min ([1]; 37 °C, pH 6.5, fassif, thermodynamic from solid, intestinal compartment, vial I 15 min (45 min total), FaSSIF x2 pH 6.5/sodium bicarbonate 90/10 added, 37° C., target about 2 mg/ml, read-out: Soluble fraction): 60 µg/mL (≈ 177 µM)
solubility at 30 min ([1]; 37 °C, pH 6.5, fassif, thermodynamic from solid, intestinal compartment, vial I 30 min (60 min total), FaSSIF x2 pH 6.5/sodium bicarbonate 90/10 added, 37° C., target about 2 mg/ml, read-out: Soluble fraction): 70 µg/mL (≈ 207 µM)
solubility at 60 min ([1]; 37 °C, pH 6.5, fassif, thermodynamic from solid, intestinal compartment, vial I 60 min (90 min total), FaSSIF x2 pH 6.5/sodium bicarbonate 90/10 added, 37° C., target about 2 mg/ml, read-out: Soluble fraction): 70 µg/mL (≈ 207 µM)
solubility at 120 min ([1]; 37 °C, pH 6.5, fassif, thermodynamic from solid, intestinal compartment, vial I 120 min (150 min total), FaSSIF x2 pH 6.5/sodium bicarbonate 90/10 added, 37° C., target about 2 mg/ml, read-out: Soluble fraction): 80 µg/mL (≈ 236 µM)
Crystalline phase conversion as detected by XRPD ([1]; intestinal compartment): no crystalline phase conversion
Structure (SMILES): FC(F)(F)Oc1ccc(Nc2ccc3cccc(Cl)c3n2)cc1 [ABX464 crystalline Form I, 8-chloro-N-(4-(trifluoromethoxy)phenyl)quinolin-2-amine]

Solubility compared to the ABX464 crystalline Form I [2]: higher solubility
Solubility compared to the ABX464 crystalline Form I ([2]; listed as ABX464 hemi-Napadisylate salt): significant higher solubility
Kinetic solubility ([2]; FassiF pH 6.5 + 1% PVPVA, sampling time 5 min): 70 µg/mL
Kinetic solubility ([2]; FassiF pH 6.5 + 1% PVPVA, sampling time 30 min): 116 µg/mL
Kinetic solubility ([2]; FassiF pH 6.5 + 1% PVPVA, sampling time 2 h): 149 µg/mL
Kinetic solubility ([2]; FassiF pH 6.5 + 1% PVPVA, sampling time 4 h): 206 µg/mL
Kinetic solubility ([2]; FassiF pH 6.5 + 1% PVPVA, sampling time 24 h): 432 µg/mL
Solubility, plateau ([2]; FeSSIF + 1% PVPVA medium, at 2 h): ~1050 µg/mL
solubility ([2]; FeSSIF + 1% PVPVA medium, at 24 h): ~1520 µg/mL
Kinetic solubility ([2]; FessiF pH 5 + 1% PVPVA, sampling time 5 min): 396 µg/mL
Kinetic solubility ([2]; FessiF pH 5 + 1% PVPVA, sampling time 30 min): 782 µg/mL
Kinetic solubility ([2]; FessiF pH 5 + 1% PVPVA, sampling time 2 h): 1053 µg/mL
Kinetic solubility ([2]; FessiF pH 5 + 1% PVPVA, sampling time 4 h): 1055 µg/mL
Kinetic solubility ([2]; FessiF pH 5 + 1% PVPVA, sampling time 24 h): 1517 µg/mL
Soluble fraction ([1]; gastric compartment, vial G 15 min, FaSSGF pH 1.2 + 1% PVPVA, 37° C., target about 4 mg/ml): 0.05 mg/mL
Soluble fraction ([1]; gastric compartment, vial G 30 min, FaSSGF pH 1.2 + 1% PVPVA, 37° C., target about 4 mg/ml): 0.06 mg/mL
Solubility (ABX464 soluble fraction) in the intestinal compartment ([1]; intestinal compartment at pH 6.5 of the fasted human in vitro model): ~430 µg/mL
Soluble fraction ([1]; intestinal compartment, vial I 15 min (45 min total), FaSSIF x2 pH 6.5/sodium bicarbonate 90/10 added, 37° C., target about 2 mg/ml): 0.17 mg/mL
Soluble fraction ([1]; intestinal compartment, vial I 30 min (60 min total), FaSSIF x2 pH 6.5/sodium bicarbonate 90/10 added, 37° C., target about 2 mg/ml): 0.23 mg/mL
Soluble fraction ([1]; intestinal compartment, vial I 60 min (90 min total), FaSSIF x2 pH 6.5/sodium bicarbonate 90/10 added, 37° C., target about 2 mg/ml): 0.32 mg/mL
Soluble fraction ([1]; intestinal compartment, vial I 120 min (150 min total), FaSSIF x2 pH 6.5/sodium bicarbonate 90/10 added, 37° C., target about 2 mg/ml): 0.43 mg/mL
Crystalline phase conversion as detected by XRPD ([1]; intestinal compartment): no crystalline phase conversion
Structure (SMILES): FC(F)(F)Oc1ccc(Nc2ccc3cccc(Cl)c3n2)cc1.FC(F)(F)Oc1ccc(Nc2ccc3cccc(Cl)c3n2)cc1.O=S(=O)(O)c1cccc2c(S(=O)(=O)O)cccc12 [anhydrous ABX464 hemi-Napadisylate salt]

Reference: patent publication US20230067676A1, “CO-CRYSTALS AND SALTS OF 8-CHLORO-N-(4-(TRIFLUOROMETHOXY)PHENYL)QUINOLIN-2-AMINE” (ABIVAX, priority 2020, published 2023)
